Reference: PubChem BioAssay AID1259407 (Chemical Carcinogenesis Research Information System (CCRIS), 2018)
Calls of active or inactive are those of the source. The rule behind the calls is not given here.

Tested on: CCRIS mutagenicity, Ames/micronucleus/aberration tests
Assay: CCRIS mutagenicity studies

## CC(=O)CC(=O)Nc1ccccc1C
Test System: AMES SALMONELLA TYPHIMURIUM, Strain/Indicator: TA102, Metabolic Activation: NONE, Method: STANDARD PLATE
  mutagenic call: inactive; negative
Test System: AMES SALMONELLA TYPHIMURIUM, Strain/Indicator: TA2638, Metabolic Activation: NONE, Method: STANDARD PLATE
  mutagenic call: inactive; negative
Test System: Ames Salmonella typhimurium, Strain/Indicator: TA98, Metabolic Activation: None, Method: Preincubation
  mutagenic call: inactive; negative
Test System: Ames Salmonella typhimurium, Strain/Indicator: TA98, Metabolic Activation: Rat, Liver, S9, Sodium phenobarbital and 5,6-benzoflavone (10%), Method: Preincubation
  mutagenic call: inactive; negative
Test System: Ames Salmonella typhimurium, Strain/Indicator: TA100, Metabolic Activation: None, Method: Preincubation
  mutagenic call: inactive; negative
Test System: Ames Salmonella typhimurium, Strain/Indicator: TA100, Metabolic Activation: Rat, Liver, S9, Sodium phenobarbital and 5,6-benzoflavone (10%), Method: Preincubation
  mutagenic call: inactive; negative
Test System: Ames Salmonella typhimurium, Strain/Indicator: TA1535, Metabolic Activation: None, Method: Preincubation
  mutagenic call: inactive; negative
Test System: Ames Salmonella typhimurium, Strain/Indicator: TA1535, Metabolic Activation: Rat, Liver, S9, Sodium phenobarbital and 5,6-benzoflavone (10%), Method: Preincubation
  mutagenic call: inactive; negative
Test System: Ames Salmonella typhimurium, Strain/Indicator: TA1537, Metabolic Activation: None, Method: Preincubation
  mutagenic call: inactive; negative
Test System: Ames Salmonella typhimurium, Strain/Indicator: TA1537, Metabolic Activation: Rat, Liver, S9, Sodium phenobarbital and 5,6-benzoflavone (10%), Method: Preincubation
  mutagenic call: inactive; negative
Test System: E. COLI, Strain/Indicator: WP2 (PKM101), Metabolic Activation: NONE, Method: STANDARD PLATE
  mutagenic call: inactive; negative
Test System: E. COLI, Strain/Indicator: WP2 UVRA (PKM101), Metabolic Activation: NONE, Method: STANDARD PLATE
  mutagenic call: inactive; negative
Test System: E. coli, Strain/Indicator: WP2uvrA/pKM101, Metabolic Activation: None, Method: Preincubation
  mutagenic call: inactive; negative
Test System: E. coli, Strain/Indicator: WP2uvrA/pKM101, Metabolic Activation: Rat, Liver, S9, Sodium phenobarbital and 5,6-benzoflavone (10%), Method: Preincubation
  mutagenic call: inactive; negative

## Cc1ccc(N(CCO)CCO)cc1
Test System: AMES SALMONELLA TYPHIMURIUM, Strain/Indicator: TA1535, Metabolic Activation: RAT, LIVER, S-9, AROCLOR 1254 (2.5%), Method: PREINCUBATION
  mutagenic call: active; positive
Test System: Mouse lymphoma, Strain/Indicator: L5178Y (tk+/tk-), Metabolic Activation: None, Method: Suspension/plate
  mutagenic call: inactive; negative
Test System: Mouse lymphoma, Strain/Indicator: L5178Y (tk+/tk-), Metabolic Activation: Rat, Liver, S-9, Aroclor 1254, Method: Suspension/plate
  mutagenic call: inconclusive (previous evaluation equivocal)

## CN(N=O)C(=O)Oc1ccccc1Cl
Test System: E. COLI WP2, Strain/Indicator: WP2, Metabolic Activation: NONE, Method: STANDARD PLATE
  mutagenic call: active; positive

## FC(F)(F)CC(F)(F)F
Test System: AMES SALMONELLA TYPHIMURIUM, Strain/Indicator: TA97, Metabolic Activation: NONE, Method: CLOSED GLASS VESSEL
  mutagenic call: inactive; negative
Test System: AMES SALMONELLA TYPHIMURIUM, Strain/Indicator: TA97, Metabolic Activation: RAT LIVER S-9, AROCLOR 1254, Method: CLOSED GLASS VESSEL
  mutagenic call: inactive; negative
Test System: AMES SALMONELLA TYPHIMURIUM, Strain/Indicator: TA98, Metabolic Activation: NONE, Method: CLOSED GLASS VESSEL
  mutagenic call: inactive; negative
Test System: AMES SALMONELLA TYPHIMURIUM, Strain/Indicator: TA98, Metabolic Activation: RAT LIVER S-9, AROCLOR 1254, Method: CLOSED GLASS VESSEL
  mutagenic call: inactive; negative
Test System: AMES SALMONELLA TYPHIMURIUM, Strain/Indicator: TA100, Metabolic Activation: NONE, Method: CLOSED GLASS VESSEL
  mutagenic call: inactive; negative
Test System: AMES SALMONELLA TYPHIMURIUM, Strain/Indicator: TA100, Metabolic Activation: RAT LIVER S-9, AROCLOR 1254, Method: CLOSED GLASS VESSEL
  mutagenic call: inactive; negative
Test System: AMES SALMONELLA TYPHIMURIUM, Strain/Indicator: TA1535, Metabolic Activation: NONE, Method: CLOSED GLASS VESSEL
  mutagenic call: inactive; negative
Test System: AMES SALMONELLA TYPHIMURIUM, Strain/Indicator: TA1535, Metabolic Activation: RAT LIVER S-9, AROCLOR 1254, Method: CLOSED GLASS VESSEL
  mutagenic call: inactive; negative
Test System: ESCHERICHIA COLI, Strain/Indicator: WP2 UVR A, Metabolic Activation: NONE, Method: CLOSED GLASS VESSEL
  mutagenic call: inactive; negative
Test System: ESCHERICHIA COLI, Strain/Indicator: WP2 UVR A, Metabolic Activation: RAT LIVER S-9, AROCLOR 1254, Method: CLOSED GLASS VESSEL
  mutagenic call: inactive; negative

## CN(N=O)C(=O)NC1O[C@H](CO)[C@@H](O)[C@H](O)[C@H]1O (some centres undefined)
Test System: CHINESE HAMSTER V-79, Strain/Indicator: V-79/8-AZAGUANINE, Metabolic Activation: NONE, Method: STANDARD PLATE
  mutagenic call: active; positive
